Results taken from patent US11007269B2, “P53 degradation inducing molecule and pharmaceutical composition” (Tokyo University of Science Foundation, priority 2016, dated 2021).

Target: T1, endogenous wild-type p53 protein (Mus musculus, UniProt P02340)
T1 construct: from tissue; host or cells: liver of C57BL/6J wild-type mice
Test: Western blot of wild-type p53 protein in liver of mice given the compound
Format: in vivo
Settings: C57BL/6J mice, 48 hours after administration
Experimental: In Example 4, degradation (knockdown) of the endogenous wild-type p53 protein and MDM2 protein in mouse individuals in which TIBC-CANDDY_MLN had been administered was evaluated by Western blot analysis.
TIBC-CANDDY_MLN was dissolved in DMSO immediately before administration, and then dissolved in corn oil (Code No. 25606-55, Nacalai Tesque) so that the concentration of DMSO was 10 vol %, and then a dose of 50 mg/kg body weight or 100 mg/kg body weight was administered intraperitoneally to C57BL/6J wild-type mice (7 to 8 weeks old, male) (CLEA Japan, Inc.) (n=3). As a control, an injection carrier (corn oil containing 10 vol % DMSO) was used. The mice were kept under an environment of ad libitum access to food and water. […]
The frozen tissue (0.04 g) was triturated, and then 980 μL of 1×TKM tissue lysis buffer (50 mM triethanolamine (pH 7.8), 50 mM KCl, 5 mM MgCl2, 0.25 M sucrose, 1 mM PMSF, protein inhibitors cocktail-EDTA free (Code No. 03969-21, Nacalai Tesque), 1 mM DTT, Recombinant RNase inhibitor 5 μl/mL (40 U/μl, Cat No. 2313A, Lot No. K8402DA, TAKARA Bio)) was added, and dissolved by rotation for 15 minutes (1 rpm, 25° C.). […] The concentration of proteins in the tissue extract was quantified with a spectrophotometer with the tissue extract that had been diluted 20 times using DEPC-treated water. […]

T1 sequence (P02340 whole entry): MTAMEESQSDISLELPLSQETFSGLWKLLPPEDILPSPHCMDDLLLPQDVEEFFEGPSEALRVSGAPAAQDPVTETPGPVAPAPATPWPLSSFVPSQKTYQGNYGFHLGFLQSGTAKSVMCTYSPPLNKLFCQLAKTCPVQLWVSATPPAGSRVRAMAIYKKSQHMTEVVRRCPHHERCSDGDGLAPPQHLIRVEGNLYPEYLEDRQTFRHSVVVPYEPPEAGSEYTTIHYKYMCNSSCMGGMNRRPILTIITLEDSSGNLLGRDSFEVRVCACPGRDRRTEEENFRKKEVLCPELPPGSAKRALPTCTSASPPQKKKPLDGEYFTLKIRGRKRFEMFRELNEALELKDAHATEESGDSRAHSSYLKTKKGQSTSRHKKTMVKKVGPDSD

amount of endogenous wild-type p53 protein in the liver (50 mg/kg body weight intraperitoneally): reduced | amount of endogenous wild-type p53 protein in the liver (100 mg/kg body weight intraperitoneally): reduced
SMILES: CC(C)C[C@H](NC(=O)CNC(=O)c1cc(Cl)ccc1Cl)C(=O)NCCCCCCC(=O)Nc1ccc(C(=O)/C=C/c2ccc(I)cc2)cc1 [TIBC-CANDDY_MLN]
